Measured values: US20230233566A1, “INHIBITION OF BMI1 ELIMINATES CANCER STEM CELLS AND ACTIVATES ANTITUMOR IMMUNITY” (The Regents of the University of California, priority 2020, published 2023)

Experiments:
BMI-1 = BMI-1 (Homo sapiens, UniProt P35226); settings: cell-free assay; cited from earlier work
[1] = phase 1 study; cited from earlier work
[2] = system: HNSCC lymph node metastasis; test: Cervical lymph node metastasis by anti-PCK immunostaining; assay type: in vivo, mouse; settings: given concurrently with PTC209 plus anti-PD1
Experimental: Tumor growth and cervical lymph node metastasis were examined as described before (Chen et al., 2017). Briefly, mice were sacrificed, and tongues and cervical lymph nodes were harvested immediately and the lesion surface areas were measured. For histological analysis and immunostaining, longitudinally cut tongues (dorsal/ventral) and intact lymph nodes were fixed overnight in 10% buffered formalin and paraffin-embedded. Tissue blocks were cut into 10-15 sections in 4 μm thickness and stained with hematoxylin and eosin (H&E). The SCC number was counted and areas were measured as described before (Chen et al., 2017). […] To assess lymph node metastasis, the sections of cervical lymph nodes were immunostained with anti-PCK antibodies which specifically detected epithelial tumor cells in lymph nodes (Santa Cruz, Cat #sc-8018). The percentage of lymph nodes with metastasis and their metastatic areas were measured.

HNSCC = test: 4NQO mouse model of HNSCC: lesion area, histology, invasion grade
Experimental: Bmi1^CreER (JAX:010531) and R26^tdTomato (JAX:007908) mouse strains were cross-mated to generate Bmi1^CreER;R26^tdTomato. K14^CreER (JAX:005107) and Bmi1^flox/flox (JAX: 028974) mouse strains were cross-mated to generate K14^CreER; Bmi1^flox/flox. […] For induction of HNSCC, six-week-old mice were treated with drinking water containing 50 ug/ml 4NQO (Santa Cruz, Cat #256815) for 16 weeks and then given normal drinking water for tumor formation and lymph node metastasis. For lineage tracing and Bmi1 knock out studies, mice were intraperitoneally injected with tamoxifen (9 mg per 40 g body weight; Sigma-Aldrich, Cat #T5648) to activate Cre.
Cisplatin (Sigma-Aldrich, Cat #479306) was dissolved in saline. PTC209 (MedChem Express, Cat #HY-15888) was dissolved in 14% DMSO, 36% polyethylene glycol 400 (Sigma-Aldrich, Cat #202304) and 50% polypropylene glycol (Sigma-Aldrich Cat #4347). […]
Briefly, mice were sacrificed, and tongues and cervical lymph nodes were harvested immediately and the lesion surface areas were measured. […] The SCC number was counted and areas were measured as described before (Chen et al., 2017). The HNSCC invasiveness was scored based on the following criteria: showing signs of normal or epithelial dysplasia appearance (grade 1); distinct invasion, unclearness of basement membrane, drop and diffuse infiltration into the superficial portion of the muscle layer (grade 2); loss of the basement membrane, extensive invasion into deep muscle layer (grade 3). To assess lymph node metastasis, the sections of cervical lymph nodes were immunostained with anti-PCK antibodies which specifically detected epithelial tumor cells in lymph nodes (Santa Cruz, Cat #sc-8018). The percentage of lymph nodes with metastasis and their metastatic areas were measured.

HNSCC tumor cells = test: Anti-active caspase-3 (Ac-casp3) immunostaining of apoptosis in HNSCC; assay type: in vivo, mouse; settings: given concurrently with PTC209 plus anti-PD1
Experimental: (§1) The immunocomplexes were detected and visualized using related secondary antibodies conjugated with Cy2 or Cy3 (Jackson ImmunoResearch Laboratories). […] At least three sections from each HNSCC lesions were immunostained and analyzed. Tumor cells (>150) and CD8+, Ac-casp3+ and Tomato^+ cells of these tumor cell areas were counted manually in each section. The percentage of CD8+, Ac-casp3^+ and Tomato^+ cells were calculated by dividing those cells with tumor cells and averaged from the sections.

BMI1+ CSCs [3] = test: BMI1 immunostaining of CSCs in HNSCC; assay type: in vivo, mouse; settings: FIG. 16C-16D
CD8+ T cells = test: Immunostaining of CD8+ T cells in HNSCC; assay type: in vivo, mouse
Experimental: as §1

BMI1 [4] = test: BMI1 expression in HNSCC tumors by immunostaining and Western blot; assay type: in vivo, mouse; settings: HNSCC, FIG. 18
Experimental: (§2) Cells were lysed using the radioimmunoprecipitation assay (RIPA) buffer (Sigma-Aldrich, Cat #R0278) added with a cocktail of protease inhibitors (Thermo Fisher Scientific, Cat ##78430) and phosphatase inhibitors (Sigma-Aldrich, Cat #4906845001). Protein extracts were resolved on a 10% or 15% SDS polyacrylamide gel and then transferred to a polyvinylidene difluoride membrane. Membranes were blocked with 5% milk for 1 h and incubated with primary antibodies overnight at 4° C. […] The signals were detected using the Clarity Western ECL kit (Bio-Rad, Cat #1705060). […] After treatment, supernatants were collected, and the protein levels of CCL5, CXCL9, CXCL10 and CXCL11 were measured with ELISA (R&D Systems, Cat #DRN00B, DCX900, DIP100, DCX110) according to the manufacturer's instructions.

BMI1+ CSCs [5] = test: In vivo labeling and lineage tracing of Tomato+ BMI1+ CSCs; set-up: species or system mouse; settings: tamoxifen 1 day prior to sacrifice, treated 4 weeks
Experimental: as §1

cytosolic dsDNA = test: Cytosolic dsDNA staining (PicoGreen/MitoTracker); assay type: cell-based, human; settings: SCC23 and SCC1 cells
Experimental: Following the treatment, SCC23 and SCC1 cells were incubated with culture media containing PicoGreen (dsDNA stain, 200-fold dilution, Thermo Fisher Scientific, Cat #P11496) and MitoTracker ([…], 100 nM, Thermo Fisher Scientific, Cat #M7512). One hour after incubation, cells were fixed with 4% paraformaldehyde for 10 min. Cells were then washed twice with PBS and stained with DAPI (Sigma-Aldrich, Cat #D9542) and mounted with SlowFade Antifade Reagents (Thermo Fisher Scientific, Cat #536937). Staining was imaged and assessed using a Leica SP5X laser scanning confocal microscope.

SCC23 cells = test: qRT-PCR of ATM, DNA-PKcs, MRE11, JUN, FOSL1, MMP3, MMP9 in SCC23 cells; assay type: cell-based, human
Experimental: (§3) For qRT-PCR, total RNA was prepared using TRIzol reagent (Thermo Fisher Scientific Cat #15596026), and 1 μg of RNA was reversely transcribed with random primer (Thermo Fisher Scientific Cat #48190011), dNTP mix (Thermo Fisher Scientific, Cat #18427013), and M-MuLV Reverse Transcriptase (New England Biolabs, Cat #M0253L). The levels of mRNA were […] measured using a SYBRGreen supermix (Bio-Rad, Cat #1708880). GAPDH was used as an internal control.

IFNβ = test: qRT-PCR of IFNβ mRNA; assay type: cell-based, human; settings: SCC23 cells
Experimental: as §3

[6] = system: promoters of CCL5, CXCL9, CXCL10 and CXCL11; test: ChIP-qPCR on chemokine promoters; assay type: cell-based, human; settings: SCC23 cells
Experimental: ChIP-qPCR assays were performed as previously described (Ding et al, 2013). Briefly, SCC cells were sequentially treated with dimethyl 3,3′-dithiobispropionimidate-HCl (DTBP; Cat #20665, Thermo Fisher Scientific) solution and formaldehyde, and harvested with a cell scraper. The cell pellet was lysed with ChIP lysis buffer and sonicated to generate 200-500 bp DNA fragments with a sonicator. The fragmented chromatins were immunoprecipitated with anti-BMI1 (Cell Signaling Technology, Cat #6964), anti-Ubiquityl-Histone H2A (Lys119) (Cell Signaling Technology, Cat #8240) overnight at 4° C. The precipitated DNA-chromatin products were purified with ChIP DNA clean & concentrator kit (Cat #D5205, Zymo Research) and the DNA levels were quantified by qPCR. Data is presented as the percentage of input DNA.

pH2A.X = test: DNA damage in SCC23 and SCC1 cells (pH2A.X, alkaline comet assay); assay type: cell-based, human
Experimental: (§4) Cells were lysed using the radioimmunoprecipitation assay (RIPA) buffer (Sigma-Aldrich, Cat #R0278) added with a cocktail of protease inhibitors (Thermo Fisher Scientific, Cat ##78430) and phosphatase inhibitors (Sigma-Aldrich, Cat #4906845001). Protein extracts were resolved on a 10% or 15% SDS polyacrylamide gel and then transferred to a polyvinylidene difluoride membrane. Membranes were blocked with 5% milk for 1 h and incubated with primary antibodies overnight at 4° C. Primary antibodies used in this study were: anti-phospho-STING (Ser366) (1:1,000; Cell Signaling Technology, Cat #19781), anti-STING (1:1,000; Cell Signaling Technology, Cat #13647), anti-phospho-TBK1 (Ser172) (1:1,000; Cell Signaling Technology, Cat #5483), anti-TBK1 (1:1,000; Cell Signaling Technology, Cat #3504), anti-phospho-IRF3 (Ser396) (1:1,000; Cell Signaling Technology, Cat #29047), anti-IRF3 (1:1,000; Cell Signaling Technology, Cat #4302), anti-BMI1 (1:1,000; Cell Signaling Technology, Cat #6964), anti-Ubiquityl-Histone H2A (Lys119) (1:1000, Cell Signaling Technology, Cat #8240), anti-phospho Histone H2A.X (Ser139) (1:1000; Cell Signaling Technology, Cat #9718), and anti-GAPDH (1:1000; Cell Signaling Technology, Cat #5174), anti-Histone H3 (1:2,000; Cell Signaling Technology, Cat #4499). The signals were detected using the Clarity Western ECL kit (Bio-Rad, Cat #1705060). To measure the protein levels of CCL5, CXCL9, CXCL10 and CXCL11, cells were treated with PTC209 or shBMI1 knockdown for 48 hr. After treatment, supernatants were collected, and the protein levels of CCL5, CXCL9, CXCL10 and CXCL11 were measured with ELISA (R&D Systems, Cat #DRN00B, DCX900, DIP100, DCX110) according to the manufacturer's instructions.
Single cell gel electrophoresis comet assays were performed using the SCGE assay Kit (Enzo Life Sciences, Cat #ADI-900-166). Following the treatment, cells were mixed with low melting point agarose at a volume ratio of 1:50, and 100 μl of aliquots were loaded onto pre-warmed slides. Slides were incubated in pre-chilled lysis solution for 1 h and then in pre-chilled alkaline solution for 1 h. Electrophoresis was run at 22 V in the TBE buffer for 30 min. Comets were stained with CYGREEN dye for 30 min and imaged. 50 individual cells at least per sample were evaluated in duplicates by the CASP Version 1.2.2 analysis tool.

[7] = system: cGAS-STING-IRF3 signaling; test: Western blot of phosphorylated STING, TBK1, IRF3; assay type: cell-based, human
Experimental: as §4

BMI1 [8] = test: Western blot of BMI1 and H2AUb in SCC23 and SCC1 cells; assay type: cell-based, human
Experimental: Human SCC23 and SCC1 cells were grown in DMEM containing 10% FBS and antibiotics (streptomycin and penicillin) at 37° C. in a 5% CO2 atmosphere. To generate lentiviruses, scramble control (shCtrl, Addgene, Cat #1864; see Sarbassov et al Science 2005 Feb. 18; 307(5712):1098-101) and BMI1 specific shRNA lentiviral plasmids (shBmi1, Sigma-Aldrich, Cat #TRCN0000020156, comprising […], SEQ ID NO:35) were transfected into HEK293T cells with two helper plasmids psPAX2 (Addgene, Cat #12260) and pMD2.G (Addgene, Cat #12259). Viral supernatant was harvested 72 h after transfection and passed through a 0.45 μm filter to remove cell debris and live cells. Collected lentiviruses were used directly to infect cells with the addition of polybrene (Sigma-Aldrich, Cat #H9268), or frozen at −80° C. for later use. […]
as §2, with “#4906845001).” for “#4906845001). Protein extracts were resolved on a 10% or 15% SDS polyacrylamide gel and then transferred to a polyvinylidene difluoride membrane. Membranes were blocked with 5% milk for 1 h and incubated with primary antibodies overnight at 4° C.”

[9] = given concurrently with PTC209 plus anti-PD1

Sequence of BMI-1 (P35226 whole entry, species assumed): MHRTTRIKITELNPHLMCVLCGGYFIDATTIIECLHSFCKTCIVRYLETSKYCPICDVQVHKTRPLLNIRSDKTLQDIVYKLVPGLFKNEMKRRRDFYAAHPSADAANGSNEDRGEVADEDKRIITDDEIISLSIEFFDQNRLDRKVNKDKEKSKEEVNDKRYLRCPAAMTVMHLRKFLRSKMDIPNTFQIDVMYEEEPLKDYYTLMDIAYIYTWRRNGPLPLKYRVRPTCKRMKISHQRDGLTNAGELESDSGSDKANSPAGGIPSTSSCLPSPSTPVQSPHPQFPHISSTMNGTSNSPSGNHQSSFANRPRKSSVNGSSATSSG
Sequence of BMI-1 (Q06587 whole entry partner, species assumed): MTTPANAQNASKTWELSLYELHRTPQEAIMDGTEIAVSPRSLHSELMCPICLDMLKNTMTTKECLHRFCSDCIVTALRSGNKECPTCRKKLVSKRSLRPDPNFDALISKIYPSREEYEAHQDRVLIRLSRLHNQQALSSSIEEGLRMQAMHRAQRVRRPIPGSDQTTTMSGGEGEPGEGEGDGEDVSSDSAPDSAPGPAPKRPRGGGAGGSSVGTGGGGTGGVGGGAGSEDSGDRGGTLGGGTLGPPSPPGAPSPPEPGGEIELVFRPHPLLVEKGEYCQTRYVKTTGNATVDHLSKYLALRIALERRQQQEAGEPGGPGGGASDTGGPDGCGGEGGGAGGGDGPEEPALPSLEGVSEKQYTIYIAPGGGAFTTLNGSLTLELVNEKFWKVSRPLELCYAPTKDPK

O=C1C(=Cc2cccnc2)C(=O)c2ccccc21 [PRT4165, 2-(3-pyridinylmethylene)-1H-indene-1,3(2H)-dione]
IC50 (BMI-1): 3.9 µM

Cc1nc2ccc(F)cc2n1-c1nc(N)c(F)c(Nc2ccc(C(F)(F)F)cc2)n1 [PTC596, 5-fluoro-2-(6-fluoro-2-methyl-1H-benzimidazol-1-yl)-N-[4-(trifluoromethyl)phenyl]pyrimidine-4,6-diamine]
tolerability [1]: tolerable with manageable gastrointestinal side effects

Cc1ccc(-c2ccc3c(c2)C=C(C(=O)Nc2ccc(C[N+](C)(C)C4CCOCC4)cc2)CCC3)cc1.[Cl-] [TAK779]
lymph node metastasis of HNSCC [2]: significantly lessened the inhibition of lymph node metastasis
HNSCC growth (histological analysis) (HNSCC; [9]): significantly reversed the inhibition of HNSCC growth
visible lesion areas (HNSCC; [9]): significantly restored visible lesion areas
apoptosis in HNSCC (HNSCC tumor cells): attenuated apoptosis in HNSCC
BMI1+ CSCs in HNSCC (strong BMI1 staining) (BMI1+ CSCs [3]): does not affect CSCs in HNSCC
CD8+ T cells infiltration in HNSCC (CD8+ T cells; [9]): significantly abrogated CD8+ T cells infiltration in HNSCC

N.N.[Cl][Pt][Cl] [cisplatin]
Bmi1 expression in Tomato+ CSCs (MFI of BMI1 staining) (BMI1 [4]): induces Bmi1 expression in Tomato^+ CSCs
BMI1+ CSCs in HNSCC (in vivo labeling) (BMI1+ CSCs [5]): significantly enriched BMI1^+ CSCs
lesion surface areas (HNSCC; 4NQO-induced HNSCC, Bmi1CreER;RosatdTomato mice, treated 4 weeks): reduced the lesion surface areas
CD8+ T cell infiltration in HNSCC (CD8+ T cells; 4NQO-induced HNSCC, treated 4 weeks): did not significantly increase CD8+ T cell infiltration

shBMI1: BMI1 specific shRNA lentiviral plasmids (Sigma-Aldrich, Cat #TRCN0000020156), SEQ ID NO:35 (CCGGCCTAATACTTTCCAGATTGATCTCGAGATCAATCTGGAAAGTATTAGGTTTTT)
accumulation of cytosolic dsDNA (cytosolic dsDNA): induced the accumulation of cytosolic dsDNA
ATM, DNA-PKcs, and MRE11 mRNA expression (SCC23 cells): does not affect the expression of ATM, DNA-PKcs, and MRE11
JUN, FOSL1, MMP3, and MMP9 mRNA expression (SCC23 cells): does not change the expression of JUN, FOSL1, MMP3, and MMP9 significantly
IFNβ mRNA expression (IFNβ): induction of IFNβ mRNA expression in SCC23 cells
levels of BMI1 on the promoters of CCL5, CXCL9, CXCL10 and CXCL11 [6]: reduction of BMI1 occupied on the promoters of CCL5, CXCL9, CXCL10, and CXCL11 in SCC23 cells
levels of H2AUb marks on the promoters of CCL5, CXCL9, CXCL10 and CXCL11 [6]: reduction of H2AUb levels on the promoters of CCL5, CXCL9, CXCL10, and CXCL11 in SCC23 cells
Olive tail moment (pH2A.X; alkaline comet assay): significantly increased the Olive tail moment in SCC23 and SCC1 cells
pH2A.X (pH2A.X; immunostaining and Western blot): increased pH2A.X in SCC23 and SCC1 cells
phosphorylation of STING (S366), TBK1 (S172) and IRF3 (S396) ([7]; SCC1 cells): induction of phosphorylation of STING (S366), TBK1 (S172) and IRF3 (S396) in SCC1 cells
phosphorylation of STING (S366), TBK1 (S172) and IRF3 (S396) ([7]; SCC23 cells): induction of phosphorylation of STING (S366), TBK1 (S172) and IRF3 (S396) in SCC23 cells
BMI1 and H2AUb levels (BMI1 [8]): reduced the expression of BMI1
